From ChEMBL document CHEMBL2311484, “Synthesis and biological evaluation of a new series of phenothiazine-containing protein farnesyltransferase inhibitors” (Eur J Med Chem, 2013)

Biological target: Protein farnesyltransferase (Homo sapiens, UniProt P49354+P49356)
Assay: Inhibition of human recombinant FTase activity using dansyl-GCVLS-peptide
Format: protein-complex assay

Row | IC50 | SMILES
1 | 5.33 µM | CCOC(=O)/C(C#N)=C/C(C(=O)N1c2ccccc2Sc2ccccc21)[n+]1ccc(N(C)C)cc1 (stereo not drawn)
2 | 10.3 µM | COc1cc[n+](C(C=C(C#N)C#N)C(=O)N2c3ccccc3Sc3ccccc32)cc1 (stereo not drawn)
3 | 7.01 µM | CCOC(=O)/C(C#N)=C/C(C(=O)N1c2ccccc2Sc2ccccc21)[n+]1cccc(C)c1 (stereo not drawn)
4 | 86.5 µM | CN(C)c1cc[n+](C(/C=C/C(=O)O)C(=O)N2c3ccccc3Sc3ccccc32)cc1 (stereo not drawn)
5 | 1.2 µM | N#CC(C#N)=C/C=C1\C=CC=CN1CC(=O)N1c2ccccc2Sc2ccccc21
6 | 4.92 µM | CCOC(=O)/C(C#N)=C/C(C(=O)N1c2ccccc2Sc2ccc(Cl)cc21)[n+]1ccc(N(C)C)cc1 (stereo not drawn)
7 | 43.1 µM | CCOC(=O)/C(C#N)=C\C=C1C=CN(CC(=O)N(CC)CC)C=C1

Second part, the compound before the results:

Row | SMILES | IC50
8 | CN(C)c1cc[n+](C(C=C(C#N)C#N)C(=O)N2c3ccccc3Sc3ccc(Cl)cc32)cc1 (stereo not drawn) | 3.18 µM
9 | Cc1ccc[n+](C(C=C(C#N)C#N)C(=O)N2c3ccccc3Sc3ccccc32)c1 (stereo not drawn) | 11 µM
10 | N#CC(C#N)=CC(C(=O)N1c2ccccc2Sc2ccccc21)[n+]1ccccc1 (stereo not drawn) | 13.1 µM
11 | CCOC(=O)/C(C#N)=C\C=C1/C=CC=CN1CC(=O)N1c2ccccc2Sc2ccccc21 | 1.07 µM
12 | CCOC(=O)/C(C#N)=C/C(C(=O)N1c2ccccc2Sc2ccccc21)[n+]1ccccc1 (stereo not drawn) | 15 µM
13 | CCOC(=O)/C(C#N)=C\C=C1C=CN(CC(=O)N2c3ccccc3Sc3ccccc32)C=C1 | 0.63 µM
14 | CN(C)c1cc[n+](C(C=C(C#N)C#N)C(=O)N2c3ccccc3Sc3ccccc32)cc1 (stereo not drawn) | 4.67 µM
15 | CCOC(=O)/C(C#N)=C/C(C(=O)N1c2ccccc2Sc2ccccc21)[n+]1ccc(OC)cc1 (stereo not drawn) | 13.7 µM
16 | Cc1cc(C)c[n+](C(C=C(C#N)C#N)C(=O)N2c3ccccc3Sc3ccccc32)c1 (stereo not drawn) | 6.36 µM
17 | N#CC(C#N)=CC=C1C=CN(CC(=O)N2c3ccccc3Sc3ccccc32)C=C1 | 0.65 µM
18 | CCOC(=O)/C(C#N)=C/C(C(=O)N1c2ccccc2Sc2ccccc21)[n+]1cc(C)cc(C)c1 (stereo not drawn) | 7.27 µM
